Measurements published in patent publication US6958311B2, “Flowering regulators” (Riken, priority 2000, dated 2005).

Tested on: American Blue (Evolvulus pilosus)
Experiment: Flowering of American Blue pots in greenhouse after spraying with brassinazole solution
Type: in vivo
Details: sprayed 1000 g/ha on days 0, 7, 14 and 30
From the text: In the figure, □ indicates the result of a group treated with the flowering regulator of the present invention (brassinazole), and ∇ indicates the result of an untreated group. The vertical axis indicates a rate of flowering, and the horizontal axis indicates the number of days after the treatment. The arrows indicate the days when the flowering regulator is sprayed. Forty four pots of American Blue (Evolvulus pilosus) of about one month after cutting, which were purchased as-commercial products, were grown in a greenhouse at 22° C. under a natural light condition during the day and an artificial light condition during the night. These pots were divided into two groups, and 22 plants were sprayed with brassinazole [4-(4-chlorophenyl)-2-phenyl-3-(1,2,4-triazoyl)butan-2-ol] solution in an amount of 1000 g/ha on days 0, 7, 14 and 30. The other group (22 plants) was grown under the same conditions except for the treatment with the agent. As the brassinazole solution, 0.5 mg/ml aqueous solution containing 0.1% dimethyl sulfoxide and 0.1% Tween 20 was prepared, and diluted to a 1/10 concentration with water upon use and sprayed by using a spray in the predetermined amount.

SMILES: CC(O)(c1ccccc1)C(Cc1ccc(Cl)cc1)n1cncn1 (centres unmarked) [brassinazole, 4-(4-chlorophenyl)-2-phenyl-3-(1,2,4-triazoyl)butan-2-ol]
- flowering accelerating effect (compared with the untreated plot): clearly demonstrated
- flowering (rate of flowering) (greenhouse 22° C., 22 plants, untreated plot: flowering on only one plant on day 35): flowering occurred after flower-bud formation
